In the NIST ThermoML archive (doi:10.1021/acs.jced.5b00944):

Legend:
[1] = for surface tension liquid-gas: Capillary rise; for speed of sound / mass density: 100 kPa, Liquid; for speed of sound: Sing-around technique in a fixed-path interferometer; for mass density: Vibrating tube method
[2] = xn = mol fraction of the nth substance listed; settings: x1 = 1; for surface tension liquid-gas: Capillary rise; for speed of sound: Sing-around technique in a fixed-path interferometer

O [water]
[1]
Settings | speed of sound [m/s] | surface tension liquid-gas [mN/m]
297.7 K | – | 71.9
304.8 K | – | 70.6
313.2 K | – | 69.5
318.15 K | 1536.7 | –
324.1 K | – | 67.6
333.15 K | 1551.3 | –

CCCC[N+]1(C)CCCC1.N#CN=C=[N-] [1-butyl-1-methylpyrrolidinium dicyanamide]
[1]
Settings | mass density [kg/m3] | speed of sound [m/s]
288.15 K | 1019.11 | 1834.4
298.15 K | 1013.48 | 1809.6
308.15 K | 1007.82 | 1785.2
318.15 K | 1002.33 | 1761
333.15 K | 994.14 | 1724.7

O [water] + CCCC[N+]1(C)CCCC1.N#CN=C=[N-]
[2]
Settings | surface tension liquid-gas [mN/m]
297.7 K | 71.9
304.8 K | 70.6
313.2 K | 69.5
324.1 K | 67.6

[2], 100 kPa, Liquid
Settings | speed of sound [m/s]
318.15 K | 1536.7
333.15 K | 1551.3

Settings | mass density [kg/m3]
[2], 333.15 K, 100 kPa, Liquid, Vibrating tube method | 983.19
